Data from PubChem BioAssay (NCI).
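Each compound was tested at five concentrations against cells in 96-well plates for 48 hours. TGI: total growth inhibition.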

How the values were obtained:
Experiment in all cases: NCI-60 cell line screen, 48 h
[1] = system: NCI-H460 lung
[2] = system: A549 NSCLC
[3] = system: TK-10 renal
[4] = system: RPMI-8226 leukemia
[5] = system: SF-295 CNS
[6] = system: HOP-92 NSCLC
[7] = system: K-562 leukemia
[8] = system: KM12 colon
[9] = system: HCT-15 colon
[10] = system: DU-145 prostate
[11] = system: SF-539 CNS
[12] = system: U251 CNS
[13] = system: HCC-2998 colon
[14] = system: MDA-MB-435
[15] = system: SK-MEL-5 melanoma
[16] = system: OVCAR-5 ovarian
[17] = system: UACC-257 melanoma
[18] = system: RXF 393 renal
[19] = system: HOP-62 NSCLC
[20] = system: MDA-MB-231 breast
[21] = system: UO-31 renal
[22] = system: NCI-H226 lung
[23] = system: BT-549 breast
[24] = system: SK-OV-3 ovarian
[25] = system: PC-3 prostate
[26] = system: LOX IMVI melanoma
[27] = system: HCT-116 colon
[28] = system: OVCAR-3 ovarian
[29] = system: OVCAR-4 ovarian
[30] = system: MALME-3M melanoma
[31] = system: HT29 colon
[32] = system: SN12C renal
[33] = system: MDA-N
[34] = system: UACC-62 melanoma
[35] = system: COLO 205 colon
[36] = system: T-47D breast
[37] = system: SW-620 colon
[38] = system: M14 melanoma
[39] = system: CAKI-1 renal
[40] = system: SK-MEL-2 melanoma
[41] = system: 786-0 renal
[42] = system: HS 578T breast
[43] = system: MCF7 breast
[44] = system: NCI-H522 lung
[45] = system: SNB-19 CNS
[46] = system: NCI/ADR-RES ovarian
[47] = system: CCRF-CEM leukemia
[48] = system: NCI-H23 lung
[49] = system: ACHN renal
[50] = system: HL-60(TB) leukemia
[51] = system: SF-268 CNS
[52] = system: EKVX NSCLC
[53] = system: A498 renal
[54] = system: MOLT-4 leukemia
[55] = system: OVCAR-8 ovarian
[56] = system: IGROV1 ovarian
[57] = system: SNB-75 CNS
[58] = system: SK-MEL-28 melanoma

With `O=C(O)c1ccc(C=C2Sc3ccccc3S2)cc1` the TGI [1] was greater than 100 µM, the TGI [2] was greater than 100 µM and the TGI [3] was greater than 100 µM. For the same compound, the TGI [4] was greater than 100 µM, the TGI [5] was greater than 100 µM and the TGI [6] was greater than 100 µM. It also gave a TGI [7] greater than 100 µM, a TGI [8] greater than 100 µM and a TGI [9] greater than 100 µM. It also gave a TGI [10] greater than 100 µM, a TGI [11] greater than 100 µM and a TGI [12] greater than 100 µM. The TGI [13] was 42.5 µM, the TGI [14] was 44.9 µM and the TGI [15] was greater than 100 µM. The TGI [16] was greater than 100 µM, the TGI [17] was greater than 100 µM and the TGI [18] was greater than 100 µM. It also gave a TGI [19] greater than 100 µM, a TGI [20] greater than 100 µM and a TGI [21] greater than 100 µM. For the same compound, the TGI [22] was greater than 100 µM, the TGI [23] was greater than 100 µM and the TGI [24] was greater than 100 µM. The TGI [25] was greater than 100 µM, the TGI [26] was greater than 100 µM and the TGI [27] was greater than 100 µM. It also gave a TGI [28] of 83 µM, a TGI [29] greater than 100 µM and a TGI [30] greater than 100 µM. The TGI [31] was greater than 100 µM, the TGI [32] was greater than 100 µM and the TGI [33] was 81.2 µM. The TGI [34] was 95.2 µM, the TGI [35] was greater than 100 µM and the TGI [36] was greater than 100 µM. The TGI [37] was greater than 100 µM, the TGI [38] was greater than 100 µM and the TGI [39] was greater than 100 µM. For the same compound, the TGI [40] was greater than 100 µM, the TGI [41] was greater than 100 µM and the TGI [42] was greater than 100 µM. It also gave a TGI [43] greater than 100 µM, a TGI [44] greater than 100 µM and a TGI [45] greater than 100 µM. The TGI [46] was greater than 100 µM, the TGI [47] was greater than 100 µM and the TGI [48] was greater than 100 µM. For the same compound, the TGI [49] was 74.2 µM, the TGI [50] was greater than 100 µM and the TGI [51] was greater than 100 µM. For the same compound, the TGI [52] was greater than 100 µM, the TGI [53] was 39.6 µM and the TGI [54] was greater than 100 µM. It also gave a TGI [55] greater than 100 µM and a TGI [56] greater than 100 µM.
In the case of `CCOC(=O)C(NC(=O)c1ccccc1)(Nc1cc(C)on1)C(F)(F)F` (configuration not stated), the TGI [2] is reported as greater than 100 µM, the TGI [3] is reported as greater than 100 µM and the TGI [4] is reported as greater than 100 µM. The TGI [5] was greater than 100 µM, the TGI [6] was greater than 100 µM and the TGI [7] was greater than 100 µM. For the same compound, the TGI [8] was greater than 100 µM, the TGI [9] was greater than 100 µM and the TGI [10] was greater than 100 µM. The TGI [57] was greater than 100 µM, the TGI [11] was greater than 100 µM and the TGI [12] was greater than 100 µM. For the same compound, the TGI [13] was greater than 100 µM, the TGI [14] was greater than 100 µM and the TGI [15] was greater than 100 µM. It also gave a TGI [16] greater than 100 µM, a TGI [17] greater than 100 µM and a TGI [18] greater than 100 µM. For the same compound, the TGI [19] was greater than 100 µM, the TGI [20] was 56.2 µM and the TGI [21] was greater than 100 µM. For the same compound, the TGI [22] was greater than 100 µM, the TGI [23] was greater than 100 µM and the TGI [24] was greater than 100 µM. The TGI [25] was greater than 100 µM, the TGI [26] was greater than 100 µM and the TGI [27] was greater than 100 µM. For the same compound, the TGI [58] was greater than 100 µM, the TGI [28] was greater than 100 µM and the TGI [29] was greater than 100 µM. The TGI [30] was greater than 100 µM, the TGI [31] was greater than 100 µM and the TGI [32] was greater than 100 µM. It also gave a TGI [33] greater than 100 µM, a TGI [34] greater than 100 µM and a TGI [35] greater than 100 µM. The TGI [36] was greater than 100 µM, the TGI [37] was greater than 100 µM and the TGI [38] was greater than 100 µM. The TGI [39] was greater than 100 µM, the TGI [40] was greater than 100 µM and the TGI [41] was greater than 100 µM. For the same compound, the TGI [42] was greater than 100 µM, the TGI [43] was greater than 100 µM and the TGI [44] was greater than 100 µM. For the same compound, the TGI [45] was greater than 100 µM, the TGI [46] was greater than 100 µM and the TGI [47] was greater than 100 µM. The TGI [48] was greater than 100 µM, the TGI [49] was greater than 100 µM and the TGI [50] was greater than 100 µM. It also gave a TGI [51] greater than 100 µM, a TGI [52] greater than 100 µM and a TGI [54] greater than 100 µM. For the same compound, the TGI [55] was greater than 100 µM and the TGI [56] was greater than 100 µM.
For `Cc1cn(C(=O)NC23CC4CC(CC(C4)C2)C3)c(=O)[nH]c1=O`, the TGI [1] was greater than 100 µM, the TGI [2] was greater than 100 µM and the TGI [3] was greater than 100 µM. For the same compound, the TGI [4] was 75.1 µM, the TGI [5] was greater than 100 µM and the TGI [6] was greater than 100 µM. For the same compound, the TGI [7] was greater than 100 µM, the TGI [8] was greater than 100 µM and the TGI [9] was 80.3 µM. It also gave a TGI [10] greater than 100 µM, a TGI [57] greater than 100 µM and a TGI [11] greater than 100 µM. It also gave a TGI [12] greater than 100 µM, a TGI [13] greater than 100 µM and a TGI [14] greater than 100 µM. It also gave a TGI [15] greater than 100 µM, a TGI [16] greater than 100 µM and a TGI [17] greater than 100 µM. It also gave a TGI [18] greater than 100 µM, a TGI [19] greater than 100 µM and a TGI [20] of 61.3 µM. The TGI [21] was greater than 100 µM, the TGI [22] was 65.7 µM and the TGI [23] was 86.1 µM. The TGI [24] was greater than 100 µM, the TGI [25] was greater than 100 µM and the TGI [26] was 83 µM. It also gave a TGI [27] greater than 100 µM, a TGI [58] greater than 100 µM and a TGI [28] greater than 100 µM. It also gave a TGI [29] greater than 100 µM, a TGI [30] greater than 100 µM and a TGI [31] greater than 100 µM. For the same compound, the TGI [32] was greater than 100 µM, the TGI [33] was greater than 100 µM and the TGI [34] was 71.4 µM. For the same compound, the TGI [35] was 75.5 µM, the TGI [36] was greater than 100 µM and the TGI [37] was greater than 100 µM. It also gave a TGI [38] greater than 100 µM, a TGI [39] greater than 100 µM and a TGI [40] of 76.3 µM. For the same compound, the TGI [41] was greater than 100 µM, the TGI [42] was greater than 100 µM and the TGI [43] was greater than 100 µM. It also gave a TGI [45] greater than 100 µM, a TGI [46] of 86.6 µM and a TGI [47] of 74.5 µM. It also gave a TGI [48] greater than 100 µM, a TGI [49] of 94.1 µM and a TGI [50] of 51.2 µM. It also gave a TGI [51] greater than 100 µM, a TGI [52] of 65.5 µM and a TGI [54] of 89.1 µM. The TGI [55] was greater than 100 µM.
